Patent US20230143119A1, “PHARMACEUTICAL COMPOSITION FOR PREVENTION OR TREATMENT OF DIABETES AND METABOLIC DISEASES ASSOCIATED THEREWITH” (DONG-A ST CO., LTD., priority 2020, published 2023)

Legend:
HF mice = assay: Three-week administration in high fat diet (HF) insulin resistant mice; format: in vivo, C57BL/6J male mice; settings: for effect of reducing body fat: compound 1 50 mg/kg or metformin 150 mg/kg twice a day alone, body composition analysis by NMR; for blood concentration of total GLP-1 (GLP-1 secretion) / weight loss: compound 1 50 mg/kg, metformin 150 mg/kg, twice a day, alone or co-administered; for blood concentration of total GLP-1 (GLP-1 secretion): three weeks, nonfasting autopsy; for weight loss: two weeks
Protocol: Four-weeks old C57BL/6J male mice were supplied with a high fat diet (Research Diets Inc., D12492; 60% kcal fat) for ten weeks so as to induce insulin resistance. After acclimatization to drug administration for two weeks, the mice were assigned into each group based on body weight and body fat. Compound 1 was administered alone at 50 mg/kg twice a day to a compound 1 monotherapy group, and metformin was administered alone at 150 mg/kg twice a day to a metformin monotherapy group. The co-administration group was orally co-administered with compound 1 at 50 mg/kg and metformin at 150 mg/kg twice a day for three weeks. […] Fasting blood glucose was measured from whole blood collected from a tail vein after fasting for six hours at the second week of administration using a Roche's AccuChek Active glucose meter.

DIO mice = assay: 12-week drug-diet admixture in diet-induced obese (DIO) and insulin resistant mice; format: in vivo, C57BL/6J mice; settings: compound 1 100 mg/kg/day, elafibranor 30 mg/kg/day, alone or in combination, 12 weeks
Protocol: To induce insulin resistance, six-weeks old male C57BL/6J mice were supplied with a special diet of high fat, high fructose and high cholesterol (Research Diets Inc., D09100301) for at least 27 weeks. A drug-diet admixture was prepared so that diet-induced obese (DIO) and insulin resistant mice could be administered with each of compound 1 at 100 mg/kg/day and elafibranor at 30 mg/kg/day as a PPAR agonist alone or in combination. The prepared drug-diet admixture was supplied to mice for 12 weeks. Nonfasting blood glucose level was measured from plasma collected after autopsy at a time point of 12 weeks after drug administration using a Roche's AccuChek Active glucose meter.

normal mice = assay: Single dose administration in normal mice with oral sucrose loading; format: in vivo, ICR male mice; settings: oral compound 1 3 mg/kg, voglibose 0.02 mg/kg, alone or in combination; sucrose 2 g/kg 30 min later
Protocol: At a time point of 30 minutes later, sucrose solution was orally loaded at 2 g/kg/10 ml. […] A time-blood glucose level response curve was obtained. In terms of a rate of change, a comparison was made between an area under the time-blood glucose level curve in a control group administered with solvent only and an area under the time-blood glucose level curve in a drug administration group.

SMILES	effect of reducing body fat (HF mice)	blood concentration of total GLP-1 (GLP-1 secretion) (HF mice)	weight loss (HF mice) [%]	hypoglycemic effect (nonfasting blood glucose level) (DIO mice)	hypoglycemic effect (postprandial blood glucose for two hours after sucrose loading) (normal mice)
CCc1cnc(N2CCC(CCCOc3cc(F)c(-c4noc(C(C)C)n4)c(F)c3)CC2)nc1 [compound 1, 3-(4-(3-(1-(5-ethylpyrimidin-2-yl)piperidin-4-yl)propoxy)-2,6-difluorophenyl)-5-isopropyl-1,2,4-oxadiazole]	no effect of reducing body fat	significant increase in GLP-1 secretion was not identified	−4.0	did not exhibit a significant hypoglycemic effect	
CSc1ccc(C(=O)/C=C/c2cc(C)c(OC(C)(C)C(=O)O)c(C)c2)cc1 [elafibranor]				exhibited a hypoglycemic effect	
CN(C)C(=N)N=C(N)N [metformin]	insignificant effect of reducing body fat	significant increase in GLP-1 secretion was not identified	−4.4		
OCC(CO)N[C@H]1C[C@](O)(CO)[C@@H](O)[C@H](O)[C@H]1O [voglibose]					no hypoglycemic effect
